# Test results reported in ChEMBL document CHEMBL5143641, “Expanding the Chemical Diversity of Fasamycin Via Genome Mining and Biocatalysis” (2022).
# Columns and labels:
# Type in all cases: functional
# Bacillus subtilis = test: Antimicrobial activity against Bacillus subtilis ATCC 23857 assessed as inhibition of microbial growth incubated for 16 hrs under shaking condition by microdilution assay
# Staphylococcus aureus = test: Antimicrobial activity against Staphylococcus aureus ATCC 51650 assessed as inhibition of microbial growth incubated for 16 hrs under shaking condition by microdilution assay
# Escherichia coli = test: Antimicrobial activity against Escherichia coli ATCC 25922 assessed as inhibition of microbial growth incubated for 16 hrs under shaking condition by microdilution assay
# Candida albicans = test: Antimicrobial activity against Candida albicans ATCC 10231 assessed as inhibition of microbial growth incubated for 16 hrs under shaking condition by microdilution assay
MIC (Bacillus subtilis) [µg/mL],MIC (Staphylococcus aureus) [µg/mL],MIC (Escherichia coli) [µg/mL],MIC (Candida albicans) [µg/mL],SMILES
12.5,6.3,> 100,> 100,COc1cc(C)c(-c2cc(OC)cc3cc4c(c(O)c23)C(=O)c2c(O)cc(O)cc2C4(C)C)c(O)c1
6.3,6.3,> 100,> 100,COc1cc(O)c(-c2cc(O)cc3cc4c(c(O)c23)C(=O)c2c(O)cc(O)cc2C4(C)C)c(C)c1Cl
12.5,12.5,> 100,> 100,COc1cc(C)c(-c2cc(O)cc3cc4c(c(O)c23)C(=O)c2c(cc(O)c(Cl)c2O)C4(C)C)c(O)c1
1.6,3.1,> 100,> 100,COc1cc(C)c(-c2cc(O)cc3cc4c(c(O)c23)C(=O)c2c(cc(OC)c(Cl)c2O)C4(C)C)c(O)c1
1.6,3.1,> 100,> 100,COc1cc2c(c(O)c1Cl)C(=O)c1c(cc3cc(O)cc(-c4c(O)cc(OC)c(Br)c4C)c3c1O)C2(C)C
1.6,3.1,> 100,> 100,COc1cc(O)c2c(c1)C(C)(C)c1cc3cc(O)cc(-c4c(O)cc(OC)c(Cl)c4C)c3c(O)c1C2=O
> 100,> 100,> 100,> 100,COc1cc(C)c(-c2cc(OC)cc3cc4c(c(O)c23)C(=O)c2c(O)cc(OC)cc2C4(C)C)c(O)c1
1.6,1.6,> 100,> 100,COc1cc(O)c(-c2cc(O)c(Br)c3cc4c(c(O)c23)C(=O)c2c(O)cc(O)cc2C4(C)C)c(C)c1Br
1.6,3.1,> 100,> 100,COc1cc(C)c(-c2cc(O)cc3cc4c(c(O)c23)C(=O)c2c(O)cc(OC)cc2C4(C)C)c(O)c1
3.1,3.1,> 100,> 100,COc1cc(C)c(-c2cc(O)cc3cc4c(c(O)c23)C(=O)c2c(cc(OC)c(Br)c2O)C4(C)C)c(O)c1
3.1,3.1,> 100,> 100,COc1cc(O)c(-c2cc(O)cc3cc4c(c(O)c23)C(=O)c2c(O)cc(O)cc2C4(C)C)c(C)c1Br
1.6,3.1,> 100,> 100,COc1cc(O)c2c(c1)C(C)(C)c1cc3cc(O)cc(-c4c(O)cc(OC)c(Br)c4C)c3c(O)c1C2=O
0.8,1.6,,,NC[C@H]1O[C@H](O[C@H]2[C@H](O)[C@@H](O[C@H]3O[C@H](CO)[C@@H](O)[C@H](N)[C@H]3O)[C@H](N)C[C@@H]2N)[C@H](O)[C@@H](O)[C@@H]1O [KANAMYCIN]
